System: E-cadherin and N-cadherin mRNA in cervical cancer cells
Test: qPCR of E-cadherin and N-cadherin
Format: cell-based, human
Settings: both cervical cancer cells, 18 hours
Procedure: RNA from cervical cancer cells was isolated using Qiagen kit and quantified using NanoDrop instrument 2000 (Thermo Scientific, Waltham, MA, USA). To analyze the expression of miR-200a in control and Br-ORM treated cells, 100 ng total RNA was reverse transcribed into cDNA using specific primers designed for miRNA analysis (Applied Biosystems, Foster City, CA, USA). The expression of this miRNAs was determined by qRT-PCR using the Taqman PCR master mixture and specific primers designed for detection of mature miRNAs (Applied Biosystems). The expression of miRNA was normalized with the expression of endogenous control, RNU6B.
Epithelial mesenchymal transition (EMT) is the basic characteristic of cancer cells in which epithelial cells undergo morphologic and molecular changes that transform the cells to mesenchymal, highly metastatic (invasive and motile), and drug-resistant phenotypes. […] The effect of Br-ORM treatment on various EMT markers in cervical cancer cells was evaluated. […] The effect of Br-ORM on expression of EMT markers in cervical cancer cells compared to untreated group by use of qPCR analysis was determined. […] Expression of E-cadherin in cervical cancer cells treated with Br-ORM (10 μM) for 18 hours was also determined by immunofluorescence and confocal microscopy. […]
FIG. 14. […] Closure of wound was determined and photographed using phase contrast microscopy. […]

COc1ccc2c(c1)OC(C)(C)C(c1ccc(Br)cc1)C2c1ccc(OCCN2CCCC2)cc1 (centres unmarked) [ORM-Br]
mRNA level of E-cadherin: significantly elevated | mRNA level of N-cadherin: significantly reduced

— patent US20240208950A1, “COMPOSITIONS AND METHODS FOR TREATMENT OF CERVICAL AND OVARIAN CANCER” (SOUTH DAKOTA BOARD OF REGENTS, priority 2021, published 2024)
